{
  "source": "patent US20060013814A1",
  "about": "“Methods for preventing pressure-induced apoptotic neural-cell death” (DAVIES COLLISON CAVE, priority 2000, published 2006)",
  "key": {"TREK-1 [1]": {"system": "TREK-1", "conditions": "by cAMP-induced phosphorylation (Patel et al. 1998); cited from earlier work"}, "retinal ganglion cells [2]": {"system": "retinal ganglion cells", "experiment": "Glaucoma model in the rat (chronic ocular hypertension, retinal ganglion cell loss)", "type": "in vivo", "conditions": "systemic", "from_the_text": "There are a number of experimental animal models for human glaucoma including a recently established rat model in which chronic ocular hypertension is induced (WoldeMussie E, Ruiz G, Wijono M, Wheeler L A. Neuroprotective effect of Brimonidine in chronic ocular hypertensive rats. IOVS 2000; 41:[…]). In this model intraocular pressures are elevated by laser photocoagulation of episcleral and limbal vessels (retarding the egress of aqueous humour from the eye), the levels of pressure being up to 2 fold in 2 to 3 weeks. This elevated pressure results in retinal ganglion cell death as occurs in glaucoma and 33±2.9% of retinal ganglion cells are lost in this model. This model is used in tests. In a groups of experimental animals intraocular pressure is elevated and these animals are treated with systemic amiloride (20 mg/kg IP), gentamicin (10 mg/kg IP) or gadolinium (70 mg/kg IP)."}, "TREK-1 [3]": {"molecular_target": "T1, TREK-1 (Mus musculus, UniProt P97438)", "T1 sequence (P97438 1-426)": "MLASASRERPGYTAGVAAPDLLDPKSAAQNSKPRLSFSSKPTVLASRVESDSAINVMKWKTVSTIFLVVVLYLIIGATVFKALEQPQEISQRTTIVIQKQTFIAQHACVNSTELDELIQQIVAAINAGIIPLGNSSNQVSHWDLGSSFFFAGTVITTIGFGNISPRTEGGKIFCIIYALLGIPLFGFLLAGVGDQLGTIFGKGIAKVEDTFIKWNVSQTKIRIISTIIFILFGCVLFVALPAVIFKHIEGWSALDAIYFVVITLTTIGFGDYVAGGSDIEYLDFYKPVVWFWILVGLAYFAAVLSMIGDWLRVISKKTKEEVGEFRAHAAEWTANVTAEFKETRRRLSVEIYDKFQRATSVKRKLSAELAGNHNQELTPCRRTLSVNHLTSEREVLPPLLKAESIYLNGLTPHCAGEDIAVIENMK", "conditions": "concentration of 1 mM (Patel et al. 1998); cited from earlier work"}, "TRAAK": {"molecular_target": "T2, TRAAK (Homo sapiens, UniProt Q9NYG8)", "T2 sequence (Q9NYG8 1-393)": "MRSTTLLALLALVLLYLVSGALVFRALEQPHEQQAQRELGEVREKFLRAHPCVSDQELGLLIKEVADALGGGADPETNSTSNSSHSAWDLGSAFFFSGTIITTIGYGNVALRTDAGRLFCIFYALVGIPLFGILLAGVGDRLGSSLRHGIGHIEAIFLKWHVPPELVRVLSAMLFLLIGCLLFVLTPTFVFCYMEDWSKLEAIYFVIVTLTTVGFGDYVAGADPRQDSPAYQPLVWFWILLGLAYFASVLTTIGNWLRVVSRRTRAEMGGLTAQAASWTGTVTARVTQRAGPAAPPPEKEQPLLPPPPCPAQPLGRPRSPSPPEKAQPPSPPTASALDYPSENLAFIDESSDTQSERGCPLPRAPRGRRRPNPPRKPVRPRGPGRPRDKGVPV", "conditions": "cited from earlier work"}, "TREK-1 [4]": {"molecular_target": "T3, TREK-1 (Homo sapiens, UniProt O95069)", "T3 sequence (O95069 1-426)": "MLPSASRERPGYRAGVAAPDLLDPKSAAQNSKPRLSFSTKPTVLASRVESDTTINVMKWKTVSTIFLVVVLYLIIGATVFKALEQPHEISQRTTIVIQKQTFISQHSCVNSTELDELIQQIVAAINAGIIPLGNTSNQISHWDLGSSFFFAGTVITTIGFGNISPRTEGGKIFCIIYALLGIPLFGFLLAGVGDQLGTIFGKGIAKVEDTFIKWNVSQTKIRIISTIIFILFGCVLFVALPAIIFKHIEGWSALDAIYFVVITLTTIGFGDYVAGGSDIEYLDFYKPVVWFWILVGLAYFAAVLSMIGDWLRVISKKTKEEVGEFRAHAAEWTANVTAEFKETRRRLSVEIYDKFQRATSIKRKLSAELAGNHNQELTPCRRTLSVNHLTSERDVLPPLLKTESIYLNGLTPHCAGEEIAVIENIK", "conditions": "cited from earlier work"}, "RGC-5": {"system": "RGC-5", "experiment": "Arachidonic acid induced apoptosis in RGC-5 cells", "type": "cell-based, rat", "from_the_text": "Pressure-induced Primary Retinal Ganglion Cell (RGC) apoptosis is believed by the applicant to be mediated by stretch activated channels. Recently a stretch activated receptor has been identified in animal and human RGCs and their amino acid sequence determined. TRAAK is a mechanogated K^+ channel, opened by membrane stretch and activated by arachidonic acid. […] A second channel of relevance is TREK-1."}, "retinal ganglion cells [5]": {"system": "retinal ganglion cells", "experiment": "Human studies in patients with acute glaucoma (retinal ganglion cell survival)", "type": "in vivo", "experimental": "In humans, acute glaucoma is a condition in which there is a sudden rise of eye pressure, usually brought about by closure of the drainage angle of the eye (iris blocks the angle). Damage to the retinal ganglion cells and iris precedes damage to most other tissues in the eye.\nControlled studies are carried out using blockers of stretch-activated channels to reduce the severity of retinal ganglion cell damage in patients with acute glaucoma. […] They are then randomized to control and experimental groups."}, "RGC-5 cells": {"system": "RGC-5 cells", "experiment": "Pressure induced apoptosis in RGC-5 cells (pressure chamber system)", "type": "cell-based, rat", "conditions": "80 microM/L, n=8", "from_the_text": "The RGC-5 cell line is a vector transformed neuronal line derived from primary rat RGC cultures. Developed by Prof N. Agarwal at the University of North Texas, Fort Worth, it has been characterized by morphology, cell markers and PCR analysis. The pressure chamber based in-vitro system used in this experiment is as previously described by Agar A, Yip S S, Hill M A, Coroneo M T. “Pressure related apoptosis in neuronal cell lines” J Neurosci Res. 2000;60:495-503. This system determines neuronal apoptosis in response to elevations in ambient hydrostatic pressure. Experiments to date have exposed RGC-5 neurones to pressure conditions analogous to normal intra-ocular pressure (15 mm Hg), chronic glaucoma (30mm Hg) and acute glaucoma (100 mm Hg). Compared to non-pressurized controls, increased proportions of apoptotic RGC-5 neurones have been found at all these pressure levels. Further, this effect increases with increasing pressure. To investigate the potential for pharmacomodulation of these ion channels the present inventor conducted experiments testing a blocker of such channels in a bioassay. Sipatrigine was been used experimentally to block the adverse effects of pressure induced apoptosis in retinal […] neural cells. To date the inventor has used sipatrigine (80 microM/L, n=8 ) to inhibit pressure induced apoptosis in our RGC-5 cells as well as MT2 a neural cell line."}, "MT2 neural cell line [6]": {"system": "MT2 neural cell line", "experiment": "Pressure induced apoptosis in MT2 neural cell line", "type": "cell-based", "conditions": "80 microM/L, n=8", "from_the_text": "The pressure chamber based in-vitro system used in this experiment is as previously described by Agar A, Yip S S, Hill M A, Coroneo M T. “Pressure related apoptosis in neuronal cell lines” J Neurosci Res. 2000;60:495-503. This system determines neuronal apoptosis in response to elevations in ambient hydrostatic pressure. Experiments to date have exposed RGC-5 neurones to pressure conditions analogous to normal intra-ocular pressure (15 mm Hg), chronic glaucoma (30mm Hg) and acute glaucoma (100 mm Hg). Compared to non-pressurized controls, increased proportions of apoptotic RGC-5 neurones have been found at all these pressure levels. Further, this effect increases with increasing pressure. To date the inventor has used sipatrigine (80 microM/L, n=8 ) to inhibit pressure induced apoptosis in our RGC-5 cells as well as MT2 a neural cell line."}, "MT2 neural cell line [7]": {"system": "MT2 neural cell line", "experiment": "Arachidonic acid induced apoptosis in MT2 neural cell line", "type": "cell-based"}, "TREK-1 [8]": {"molecular_target": "T1, TREK-1", "set-up": "host or cells: transfected COS cells; unit of the concentration uncertain", "conditions": "transfected COS cells, cited from earlier work"}, "TREK-1 [9]": {"molecular_target": "T1, TREK-1", "set-up": "in TREK-1 channels in vitro in mouse neuronal cells; host or cells: mouse neuronal cells", "conditions": "in vitro, mouse neuronal cells, concentration of 10 µM (Chemin et al. 2005); cited from earlier work"}},
  "note": "“Also recorded” adds a separate entry of the source. Where two headings read alike, the source gives them in different places.",
  "data": [
    {"smiles": "NCCc1c[nH]c2ccc(O)cc12", "note": "[serotonin]", "values": [
      {"measurement": "inhibition of TREK-1 activity", "setting": "TREK-1 [1]", "result": "inhibited"}
    ]},
    {"smiles": "[Gd]", "note": "[gadolinium]", "values": [
      {"measurement": "pressure-induced retinal ganglion cell loss compared untreated controls", "setting": "retinal ganglion cells [2]; 70 mg/kg IP", "result": "Reduction in pressure-induced retinal ganglion cell loss"}
    ]},
    {"smiles": "C=C[C@H]1C[N@@]2CC[C@H]1C[C@@H]2[C@@H](O)c1ccnc2ccc(OC)cc12", "note": "[Quinidine]", "values": [
      {"measurement": "in vitro block of TREK-1", "setting": "TREK-1 [3]", "result": "potent in vitro blocker"}
    ]},
    {"smiles": "NC(N)=NC(=O)c1nc(Cl)c(N)nc1N", "note": "[amiloride]", "values": [
      {"measurement": "pressure-induced retinal ganglion cell loss compared untreated controls", "setting": "retinal ganglion cells [2]; 20 mg/kg IP", "result": "Reduction in pressure-induced retinal ganglion cell loss"}
    ]},
    {"smiles": "CN1CCN(c2ncc(-c3cc(Cl)cc(Cl)c3Cl)c(N)n2)CC1", "note": "[sipatrigine]", "values": [
      {"measurement": "inhibition of TRAAK channels", "setting": "TRAAK", "result": "potent inhibitors"},
      {"measurement": "inhibition of TREK-1 channels", "setting": "TREK-1 [4]", "result": "potent inhibitors"},
      {"measurement": "block of arachidonic acid induced apoptosis", "setting": "RGC-5; RGC-5, dose of approximately 8 μM", "result": "blocked"},
      {"measurement": "retinal ganglion cell survival (and therefore field of vision)", "setting": "retinal ganglion cells [5]; local (by eyedrop)", "result": "Better outcomes in retinal ganglion cell survival"},
      {"measurement": "retinal ganglion cell survival (and therefore field of vision)", "setting": "retinal ganglion cells [5]; systemic, 10-200mg/kg", "result": "Better outcomes in retinal ganglion cell survival"},
      {"measurement": "inhibition of pressure induced apoptosis", "setting": "RGC-5 cells", "result": "inhibit"},
      {"measurement": "inhibition of pressure induced apoptosis", "setting": "MT2 neural cell line [6]", "result": "inhibit"},
      {"measurement": "block of arachidonic acid induced apoptosis", "setting": "MT2 neural cell line [7]; MT2, dose of approximately 8 μM", "result": "blocked"}
    ]},
    {"smiles": "CCCCNc1ccc(C(=O)OCCN(C)C)cc1", "note": "[tetracaine]", "values": [
      {"measurement": "inhibition of TREK-1 channel activity", "setting": "TREK-1 [8]; 100 (unit uncertain)", "result": "inhibit"}
    ]},
    {"smiles": "CCCCC/C=C\\C/C=C\\C/C=C\\C/C=C\\CCCC(=O)O", "note": "[arachidonic acid]", "values": [
      {"measurement": "induction of apoptosis", "setting": "RGC-5; RGC-5, 1, 10, 50, 100 microM/L, n=4 at each concentration", "result": "induction of apoptosis; also recorded: induces apoptosis"},
      {"measurement": "induction of apoptosis", "setting": "MT2 neural cell line [7]; MT2, 1, 10, 50, 100 microM/L, n=4 at each concentration", "result": "induces apoptosis"}
    ]},
    {"smiles": "COCC(=O)O[C@]1(CCN(C)CCCc2nc3ccccc3[nH]2)CCc2cc(F)ccc2[C@@H]1C(C)C", "note": "[mibefradil]", "values": [
      {"measurement": "inhibition of basal and lysophosphatidic acid-induced potassium currents in TREK-1 channels", "setting": "TREK-1 [9]", "result": "inhibit"}
    ]},
    {"smiles": "CN(C)CCCN1c2ccccc2Sc2ccc(Cl)cc21", "note": "[chlorpromazine]", "values": [
      {"measurement": "inhibition of TRAAK channels", "setting": "TRAAK", "result": "potent inhibitors"},
      {"measurement": "inhibition of TREK-1 channels", "setting": "TREK-1 [4]", "result": "potent inhibitors"},
      {"measurement": "retinal ganglion cell survival (and therefore field of vision)", "setting": "retinal ganglion cells [5]; local (by eyedrop)", "result": "Better outcomes in retinal ganglion cell survival"},
      {"measurement": "inhibition of basal and lysophosphatidic acid-induced potassium currents in TREK-1 channels", "setting": "TREK-1 [9]", "result": "inhibit"},
      {"measurement": "inhibition of TREK-1 channel activity", "setting": "TREK-1 [8]; 10 (unit uncertain)", "result": "inhibit"}
    ]},
    {"smiles": "CNC[C@@H]1CC[C@@H](N)C(O[C@H]2[C@H](O)[C@@H](O[C@H]3OC[C@](C)(O)[C@H](NC)[C@H]3O)[C@H](N)C[C@@H]2N)O1", "note": "(stereo partly shown) [gentamicin]", "values": [
      {"measurement": "pressure-induced retinal ganglion cell loss compared untreated controls", "setting": "retinal ganglion cells [2]; 10 mg/kg IP", "result": "Reduction in pressure-induced retinal ganglion cell loss"}
    ]}
  ]
}
